What was measured:
[1] = Stability test of QC samples in rat plasma; assay type: in vitro ADME; details: for Extracted sample stability, Accuracy / Extracted sample stability, Concentration: extracted rat plasma samples; for Extracted sample stability, Accuracy / Long-term stability, Accuracy: relative error; for stability values (short- and long-term stability) / Short-term stability, Concentration / Long-term stability, Accuracy: rat plasma; for stability values (short- and long-term stability): all QC concentrations, room temperature 24 hours and −20°C 30 days; for Short-term stability, Concentration: room temperature for 24 hours; for Long-term stability, Accuracy: −20°C for 30 days
[2] = Pharmacokinetic tests in rats; assay type: in vivo, Sprague–Dawley rats; details: for absorption in vivo (in words) / elimination rate (in words): intravenous injection of the compound preparation
[3] = nominal concentration 300 ng/mL
[4] = nominal concentration 2400 ng/mL
[5] = male, Sprague-Dawley, rat, plasma, iv, 144 mg/kg
[6] = rat, intravenous injection, 144 mg/kg, mean ± standard deviation
[7] = nominal concentration 8000 ng/mL
[8] = rat plasma, intravenous injection of ticarcillin disodium and clavulanate, 144 mg/kg
[9] = rat plasma, intravenous injection, 144 mg/kg, mean ± standard deviation

| Structure (SMILES) | Extracted sample stability, Concentration [1, 4] | Extracted sample stability, Accuracy [1, 4] [%] | stability values (short- and long-term stability) [1] | Short-term stability, Concentration [1, 4] [ng/mL] | Long-term stability, Accuracy [1, 4] [%] | absorption in vivo (in words) ([2]; rat) | elimination rate (in words) ([2]; rat) | CL(/F) (clearance) [2, 6] [mL/min/kg] | Extracted sample stability, Concentration ([1]; nominal concentration 30 ng/mL) [ng/mL] | Extracted sample stability, Accuracy ([1]; nominal concentration 30 ng/mL) [%] | Extracted sample stability, Concentration [1, 7] [ng/mL] | Extracted sample stability, Accuracy [1, 7] [%] | Short-term stability, Concentration ([1]; nominal concentration 30 ng/mL) [ng/mL] | Short-term stability, Concentration [1, 7] [ng/mL] | Long-term stability, Accuracy ([1]; nominal concentration 30 ng/mL) [%] | Long-term stability, Accuracy [1, 7] [%] | tmax [2, 8] [min] | AUC0-t [2, 9] | AUC0-∞ [2, 9] | Vss obs (observed volume of distribution at steady state) [2, 6] [L/kg] | also measured |
| --- | --- | --- | --- | --- | --- | --- | --- | --- | --- | --- | --- | --- | --- | --- | --- | --- | --- | --- | --- | --- | --- |
| O=C(O)[C@H]1/C(=C/CO)O[C@@H]2CC(=O)N21 [Clavulanate] | 2344 ± 98 ng/mL | −2.3 | −4.3% to 3.2 | 2389 ± 118 | −1.1 | rapidly absorbed in vivo | shortest t1/2 and most rapid elimination | 5780 ± 3400 | – | – | – | – | – | – | – | – | – | – | – | – | Extracted sample stability, Accuracy ([1]; nominal concentration 80 ng/mL): −2.8%; Extracted sample stability, Concentration [1, 3]: 295 ± 17 ng/mL; Extracted sample stability, Accuracy [1, 3]: −1.7%; Short-term stability, Concentration ([1]; nominal concentration 80 ng/mL): 81.4 ± 0.6 ng/mL; Short-term stability, Concentration [1, 3]: 305 ± 11 ng/mL; Long-term stability, Accuracy ([1]; nominal concentration 80 ng/mL): 3.2%; Long-term stability, Accuracy [1, 3]: −3.7%; AUC0-t [2, 5]: 541 ± 254 ng·h/mL; AUC(0-inf) [2, 5]: 559 ± 251 ng·h/mL; Cmax [2, 5]: 1660 ± 667 ng/mL; half-life [2, 5]: 10.2 ± 2.4 min; tmax [2, 5]: 4.98 min |
| CC1(C)S[C@@H]2[C@H](NC(=O)[C@H](C(=O)O)c3ccsc3)C(=O)N2[C@H]1C(=O)O [Ticarcillin R] | 2427 ± 16 ng/mL | 1.1 | – | 2349 ± 15 | −0.5 | rapidly absorbed in vivo | slower | 0.733 ± 0.17 | 28.6 ± 0.8 | −4.7 | 8291 ± 91 | 3.6 | 30.4 ± 0.6 | 7918 ± 107 | −4.3 | 0.8 | 4.98 | 3,654,298 ± 430,890 ng·h/mL | 3,654,643 ± 431,153 ng·h/mL | 0.02 ± 0.00 | – |
| CC1(C)S[C@@H]2[C@H](NC(=O)[C@@H](C(=O)O)c3ccsc3)C(=O)N2[C@H]1C(=O)O [Ticarcillin S] | 2,465 ± 12 ng/mL | 2.7 | – | 2457 ± 19 | 1.3 | rapidly absorbed in vivo | – | 827.8 ± 63.2 | 30.8 ± 1.3 | 2.7 | 7985 ± 93 | −0.2 | 28.8 ± 0.9 | 7931 ± 113 | −2.3 | −0.6 | 4.98 | 3270 ± 262 ng·h/mL | 3274 ± 264 ng·h/mL | 12.2 ± 0.68 | – |
| CC1(C)S[C@@H]2[C@H](NC(=O)[C@H](C(=O)O)c3ccsc3)C(=O)N2[C@H]1C(=O)O [ticarcillin] | – | – | −4.3% to 3.2 | – | – | – | – | – | – | – | – | – | – | – | – | – | – | – | – | – | – |

From article PMC7770263 (The Journal of International Medical Research, 2020)
